Patent publication US20260022322A1, “MULTIMODAL BIOPHYSICAL CHARACTERIZATION APPARATUS, SYSTEM, METHOD, AND USE” (Yigong Ruixin (Xiamen) Technology Co., Ltd, priority 2023, published 2026)

Assays:
[1] = test system: macrophage cell line THP-1; test: Nuclear hardness of activated THP-1 by magnetic material method and fluorescence method; format: cell-based; conditions: THP-1 activated to M1-type macrophages
Text: S1: Provide a chip whose surface is covered with PDMS nano-magnetic micropillars. The micropillars contain a fluorescent substance and have an extracellular matrix coating.
S2: Culture the macrophage cell line THP-1 on this chip. Contact between the THP-1 cells and the chip is made by controlling the height of the culture medium.
S3: Add lipopolysaccharide (LPS) to the culture medium to activate the THP-1 cells, causing them to transform into M1-type macrophages.
S4: After several days of cultivation, use the magnetic material method to turn on the magnetic field and measure the reflected light attenuation. After turning off the magnetic field, measure the light reflection signal attenuation value and frequency of each micropillar, and sequentially calculate the softness/hardness of the nucleus at each position.
S5: Use paraformaldehyde to fix the cells on the chip, and use DAPI to stain the nuclei.
S6: Using the fluorescence method, use a confocal microscope to perform a Z-axis tomographic scan from the top to the bottom of the micropillars, and analyze the depth of the DAPI signal of the nucleus between the micropillars. […]
The results measured by the magnetic material method and the fluorescence method are the same (FIG. 33), proving that the accuracy of measuring nuclear hardness by the magnetic material method has been cross-validated by the fluorescence method.

[2] = test system: tumor cells; test: Immune-tumor cell interaction on cell mechanics chip with drug intervention; format: cell-based
Text: S1. Prepare the chip: Select a cell mechanics chip with a micropillar structure. The top of the micropillars is coated with a suitable extracellular matrix (ECM) to promote the attachment and growth of tumor cells and immune cells. Use an anti-adhesion treatment on the side surfaces of the micropillars and in the space between them.
S2. Seed tumor cells and immune cells: Seed tumor cells and immune cells (such as NK cells or T cells) separately on the mechanics chip, allowing them to interact.
S3. Monitor the mechanical properties of the tumor cells: Use the light reflection signal and micropillar deflection to monitor in real-time the changes in the cell mechanical force and hardness of the tumor cells during their interaction with the immune cells.
S4. […] Softer tumor cells (with smaller cell mechanical force) are difficult for immune cells to recognize and kill.
S5. Drug intervention: Add the drug JAS, which makes tumor cells harder, to the culture medium, and observe the changes in the cell mechanical force and hardness of the tumor cells.
S6. Evaluate the effect of drug intervention: Under the action of the drug, the tumor cells become harder, and the cell mechanical force increases (FIG. 32). It was observed that the killing effect of immune cells on tumor cells was enhanced accordingly.

[3] = drug added to culture medium, micropillar chip, light reflection signal (FIG. 32)

Row | Molecule | sagging depth of the nucleus between the micropillars ([1]; DAPI, confocal Z-axis scan (fluorescence method)) | nuclear hardness ([1]; magnetic material method and fluorescence method gave the same result (FIG. 33)) | cell mechanical force of the tumor cells [2, 3] | hardness of the tumor cells [2, 3] | killing effect of immune cells on tumor cells ([2]; tumor cells co-seeded with immune cells (such as NK cells or T cells), under the action of the drug)
1 | lipopolysaccharide [LPS] | becomes deeper | softer |  |  | 
2 | C/C1=C\[C@H](C)C[C@H](C)OC(=O)C[C@H](c2ccc(O)cc2)NC(=O)[C@@H](Cc2c(Br)[nH]c3ccccc23)N(C)C(=O)[C@H](C)NC(=O)[C@@H](C)C1 [JAS] |  |  | increases | become harder | enhanced
